{
  "source": "patent US20170296491A1",
  "about": "“PHARMACEUTICAL COMPOSITIONS COMPRISING LEVODOPA AMIDE AND USES THEREOF” (priority 2015, published 2017)",
  "key": {"[1]": {"experiment": "Plasma levels of LDA and LD after intravenous LDA-HCl in mice", "format": "in vivo", "experimental": "(§1) The purpose of this experiment was to determine the plasma levels of LDA and LD following intravenous (IV) and oral (PO) administration of LDA-HCl in CD-1 mice.\n(§2) CD-1 mice which were prepared for oral administration had to undergo fasting overnight prior to the dosing. The orally treated mice received food only 2 hour post-dosing. The method used to dose orally was oesophagotubage, and the IV mice were injected via a jugular vein under anesthesia (Isoflurane/O2). LDA-HCl solutions were dissolved in citrate buffer and LD/CD solution was prepared according to International Publication No. WO 2010/134074.\n(§3) Blood samples were collected following the oral and IV dosing at pre-determined time points and plasma levels of LDA and LD were analysed by LC-MS-MS."}, "[2]": {"conditions": "peripheral administration; cited from earlier work"}, "[3]": {"experiment": "Effect of preparation method and pH on stability of LDA-HCl/CD formulations", "format": "physicochemical", "conditions": "5 days at room temperature (Table 7)", "experimental": "LDA-HCl/CD formulations were prepared by the following methods, and were then tested for stability. Method 1. Carbidopa (CD, powder) [Teva Pharmaceuticals Ltd., Israel] was added to LDA-HCl solution. […] Precipitation occurred at room temperature. Method 2. Liquid CD formulations were prepared by weighting CD [Teva Pharmaceuticals Ltd., Israel] in a suitable container with different L-arginine [Merck] weights to obtain a final concentration of 0.8% CD (wet form, 0.75% dry form) in different molar ratios to arginine (Table 6). CD formulations were prepared as described in the International Publication No. WO 2010/134074. LDA-HCl (powder) was added to CD solutions to attain the final desired concentration of LDA-HCl/CD formulations. Method 3. CD solutions (40 mg/ml, prepared as described in the International Publication No. WO 2010/134074) were mixed with LDA-HCl solutions to attain the final desired concentration of LDA/CD formulations. The LDA-HCl formulations were prepared by dissolving 200, 160 or 120 mg/ml of LDA-HCl in 40 mM citric buffer. The chemical stability of 7 LDA-HCl/CD formulations was evaluated by HPLC analysis at t0 and after 5 days at room temperature. The recovery after 5 days at room temperature was calculated compared to t0 (Table 7)."}, "[4]": {"experiment": "Plasma levels of LDA and LD after oral LDA-HCl in mice", "format": "in vivo", "experimental": "as §1, §2, §3"}, "[5]": {"experiment": "Plasma pharmacokinetics of LDA and LD after oral LDA-HCl with and without CD in rats", "format": "in vivo", "conditions": "oral LDA-HCl 25 mg/kg", "experimental": "The purpose of this experiment was to determine the plasma pharmacokinetics of LDA and LD following oral administration of LD or LDA-HCl with and without CD in Wistar rats.\nWistar rats underwent fasting overnight prior to the dosing and received food only 2 hour post-dosing. The method used to dose orally was via oesophagotubage. Solutions were prepared as described above."}, "[6]": {"experiment": "Stability of LDA 200 mg/ml solution with HCl", "format": "physicochemical", "experimental": "The effect of HCl, representing an inorganic acid, on the stability of LDA solution was evaluated. HCl solution containing 0.3% Tween 80 was added to LDA to obtain a solution having a final LDA concentration of 200 mg/ml and a molar ratio of about 1:1 LDA:HCl. The physical stability of the solution and the chemical stability of LDA were evaluated (Table 13). As shown, LDA (200 mg/ml) is stable for at least 9 days in solution containing HCl at a molar ratio of about 1:1."}, "[7]": {"experiment": "Dissolution and stability of LDA in organic acid solutions", "format": "physicochemical", "conditions": "for Chemical stability after 3 days at RT: in % (unit assumed)", "experimental": "The effect of organic acids on the stability of LDA solution was evaluated. Formulations were prepared by adding small aliquots of organic acid solutions, 100-300 μl, to ˜240 mg LDA until full dissolution while pH was monitored. The end point of acid addition was decided by appearance and/or by pH and/or total volume. LDA concentration was determined by HPLC."}, "[8]": {"experiment": "Physical stability of LDA-HCl solutions with or without added CD-Arg formulation", "format": "physicochemical", "conditions": "0.75% CD; CD:Arg 1:1.25; LDA:HCl 1:0.92; pH 5.69; time points not separated", "experimental": "HCl solutions at 3 different concentrations containing 0.3% Tween 80 were added to LDA to obtain solutions having a final LDA concentration of 200 mg/ml and a molar ratio of 1:0.89, 1:0.92 and 1:0.95 LDA:HCl. CD-Arg formulation (CD:Arg molar ratio 1:1.25) was prepared in Tween 80 0.3% and was added gradually under stirring to 4 volumes of each of the 3 LDA-HCl solutions. The physical stability of the solutions was evaluated (Table 15). As shown, the addition of CD to LDA-HCl solutions yielded stable solutions if added to LDA-HCl solutions having a pH>3.8, preferably pH >4.6."}, "[9]": {"experiment": "Solubility of LDA in water in the absence of an acid", "format": "physicochemical", "conditions": "water with and without 0.3% Tween-80, absence of an acid; data not shown", "text": "LDA in water with and without 0.3% Tween-80, at concentrations greater than 2.5% (data not shown), is not soluble in the absence of an acid."}},
  "data": [
    {"smiles": "N[C@@H](Cc1ccc(O)c(O)c1)C(=O)O", "note": "[LD, L-3,4-dihydroxyphenylalanine, reference compound]", "values": [
      {"measurement": "LD plasma level", "setting": "[1]; IV LDA-HCl 20 mg/kg, 3 h thereafter", "value": "below limit of quantification"},
      {"measurement": "share of administered levodopa that enters the brain unaltered", "setting": "[2]", "value": "1-3%"}
    ]},
    {"smiles": "NC(=O)C(N)Cc1ccc(O)c(O)c1", "note": "(stereo not drawn) [LDA, 2-amino-3-(3,4-dihydroxyphenyl)propanamide]", "values": [
      {"measurement": "chemical stability in LDA-HCl/CD formulations", "setting": "[3]", "value": "pH-dependent"},
      {"measurement": "LDA plasma level", "setting": "[1]; IV LDA-HCl 20 mg/kg, 1 h thereafter", "value": "below limit of quantification"},
      {"measurement": "metabolism of LDA to LD", "setting": "[1]; IV administration of LDA-HCl 20 mg/kg", "value": "rapidly metabolized to LD"},
      {"measurement": "half-life of LDA compared with LD", "setting": "[1]; IV and oral administration of LDA-HCl", "value": "shorter than that of LD"},
      {"measurement": "bioavailability", "setting": "[4]; administered orally", "value": "low"},
      {"measurement": "metabolism of LDA to LD", "setting": "[4]; oral administration of LDA-HCl 20 mg/kg", "value": "rapidly metabolized to LD"},
      {"measurement": "metabolism of LDA to LD", "setting": "[5]", "value": "rapidly metabolized to LD"},
      {"measurement": "time stable in solution", "setting": "[6]; HCl at a molar ratio of about 1:1", "value": "at least 9 days"},
      {"measurement": "Chemical stability of LDA 9 days", "setting": "[6]; LDA:HCl molar ratio 1:0.94, pH 5.81, 0.3% Tween 80, in % (unit assumed)", "value": 100.1},
      {"measurement": "Chemical stability after 3 days at RT", "setting": "[7]; Acetic acid, LDA:acid 1:1.2, pH 5.0", "value": 98.4},
      {"measurement": "Chemical stability after 3 days at RT", "setting": "[7]; Citric acid, LDA:acid 1:08, pH 2.8", "value": 99.3},
      {"measurement": "time physically and chemically stable at RT", "setting": "[7]; LDA dissolved in organic acid solutions", "value": "at least 3 days"},
      {"measurement": "Chemical stability after 3 days at RT", "setting": "[7]; Succinic acid, LDA:acid 1:0.5, pH 5.7", "value": 99.1},
      {"measurement": "Chemical stability after 3 days at RT", "setting": "[7]; Tartaric acid, LDA:acid 1:0.6, pH 3.8", "value": 100.5},
      {"measurement": "LDA", "setting": "[7]; dissolved with Acetic acid, pH 5.0", "value": 199, "unit": "mg/mL"},
      {"measurement": "LDA", "setting": "[7]; dissolved with Citric acid, pH 2.8", "value": 236, "unit": "mg/mL"},
      {"measurement": "LDA", "setting": "[7]; dissolved with Citric acid, pH 5.6", "value": 175, "unit": "mg/mL"},
      {"measurement": "LDA", "setting": "[7]; dissolved with Glutamic acid, pH 5.8", "value": 128, "unit": "mg/mL"},
      {"measurement": "LDA", "setting": "[7]; dissolved with Succinic acid, pH 5.7", "value": 194, "unit": "mg/mL"},
      {"measurement": "LDA", "setting": "[7]; dissolved with Tartaric acid, pH 3.8", "value": 334, "unit": "mg/mL"},
      {"measurement": "Precipitations", "setting": "[8]", "value": "Slight"},
      {"measurement": "soluble concentration in water", "setting": "[9]", "value": "≤ 2.5", "unit": "%"}
    ]}
  ]
}
